Drawing on PubChem BioAssay AID1259407 (Chemical Carcinogenesis Research Information System (CCRIS), 2018), this text covers mutagenic call for nine molecules.

In this data set the test system is CCRIS mutagenicity, Ames/micronucleus/aberration tests. The data set can be described thus: CCRIS mutagenicity studies.
The mark [1] stands for this setting: Test System: AMES SALMONELLA TYPHIMURIUM, Strain/Indicator: TA97, Metabolic Activation: NONE, Method: PREINCUBATION
[2] abbreviates: Test System: AMES SALMONELLA TYPHIMURIUM, Strain/Indicator: TA97A, Metabolic Activation: NONE, Method: PREINCUBATION
The mark [3] stands for this setting: Test System: AMES SALMONELLA TYPHIMURIUM, Strain/Indicator: TA98, Metabolic Activation: NONE, Method: PREINCUBATION
Where [4] appears, read: Test System: AMES SALMONELLA TYPHIMURIUM, Strain/Indicator: TA100, Metabolic Activation: NONE, Method: PREINCUBATION
Where [5] appears, read: Test System: AMES SALMONELLA TYPHIMURIUM, Strain/Indicator: TA1537, Metabolic Activation: NONE, Method: STANDARD PLATE.
Where [6] appears, read: Test System: AMES SALMONELLA TYPHIMURIUM, Strain/Indicator: TA1535, Metabolic Activation: NONE, Method: STANDARD PLATE.
The mark [7] stands for this setting: Test System: AMES SALMONELLA TYPHIMURIUM, Strain/Indicator: TA98, Metabolic Activation: NONE, Method: STANDARD PLATE.

Calls of active or inactive are those of the source. The rule behind the calls is not given here.

As to `NC(=O)OCc1ccccc1`, the mutagenic call (Test System: E. COLI, Strain/Indicator: WP2 UVRA, Metabolic Activation: NONE, Method: FLUCTUATION TEST) was “inactive; negative”.
Turning to `CC(C)(CO)[C@@H](O)C(=O)NCCC(=O)O`, the mutagenic call under setting [1] was “inactive; negative”; the mutagenic call (Test System: AMES SALMONELLA TYPHIMURIUM, Strain/Indicator: TA97, Metabolic Activation: RAT, LIVER, S-9, AROCLOR 1254, Method: PREINCUBATION) was “inactive; negative”; the mutagenic call under setting [2] is “inactive; negative”; the mutagenic call (Test System: AMES SALMONELLA TYPHIMURIUM, Strain/Indicator: TA97A, Metabolic Activation: RAT, LIVER, S-9, AROCLOR 1254, Method: PREINCUBATION) was “inactive; negative”; the mutagenic call (Test System: AMES SALMONELLA TYPHIMURIUM, Strain/Indicator: TA102, Metabolic Activation: NONE, Method: PREINCUBATION) is “inactive; negative”; the mutagenic call (Test System: AMES SALMONELLA TYPHIMURIUM, Strain/Indicator: TA102, Metabolic Activation: RAT, LIVER, S-9, AROCLOR 1254, Method: PREINCUBATION) is “inactive; negative”.
`CC(=O)OO`: the mutagenic call was “inactive; negative” (Test System: AMES SALMONELLA TYPHIMURIUM, Strain/Indicator: TA97, Metabolic Activation: HAMSTER, LIVER, S-9, AROCLOR 1254 (10 OR 30%), Method: PREINCUBATION); “inactive; negative” under setting [1]; “inactive; negative” (Test System: AMES SALMONELLA TYPHIMURIUM, Strain/Indicator: TA97, Metabolic Activation: RAT, LIVER, S-9, AROCLOR 1254 (10 OR 30%), Method: PREINCUBATION); “inactive; negative” (Test System: AMES SALMONELLA TYPHIMURIUM, Strain/Indicator: TA98, Metabolic Activation: HAMSTER, LIVER, S-9, AROCLOR 1254 (10 OR 30%), Method: PREINCUBATION); “inactive; negative” under setting [3]; “inactive; negative” (Test System: AMES SALMONELLA TYPHIMURIUM, Strain/Indicator: TA98, Metabolic Activation: RAT, LIVER, S-9, AROCLOR 1254 (10 OR 30%), Method: PREINCUBATION). Further, the mutagenic call was “inactive; negative” (Test System: AMES SALMONELLA TYPHIMURIUM, Strain/Indicator: TA100, Metabolic Activation: HAMSTER, LIVER, S-9, AROCLOR 1254 (10 OR 30%), Method: PREINCUBATION); “inactive; negative” under setting [4]; “inactive; negative” (Test System: AMES SALMONELLA TYPHIMURIUM, Strain/Indicator: TA100, Metabolic Activation: RAT, LIVER, S-9, AROCLOR 1254 (10 OR 30%), Method: PREINCUBATION); “inactive; negative” (Test System: AMES SALMONELLA TYPHIMURIUM, Strain/Indicator: TA1535, Metabolic Activation: HAMSTER, LIVER, S-9, AROCLOR 1254 (10 OR 30%), Method: PREINCUBATION); “inactive; negative” (Test System: AMES SALMONELLA TYPHIMURIUM, Strain/Indicator: TA1535, Metabolic Activation: NONE, Method: PREINCUBATION); “inactive; negative” (Test System: AMES SALMONELLA TYPHIMURIUM, Strain/Indicator: TA1535, Metabolic Activation: RAT, LIVER, S-9, AROCLOR 1254 (10 OR 30%), Method: PREINCUBATION).
On to `OC1c2cccc3c2C2(OC2C1O)c1ccc2ccccc2c1-3` (stereo unspecified), for which the mutagenic call was “active; positive” under setting [2], “active; positive” under setting [3] and “active; positive” under setting [4].
As for `CC(=O)C1c2cccc(O)c2C(=O)c2c(O)cccc21`, the mutagenic call by setting is: under setting [5], “active; positive”; (Test System: AMES SALMONELLA TYPHIMURIUM, Strain/Indicator: TA1537, Metabolic Activation: RAT, LIVER, S-9, PHENOBARBITAL AND BETA-NAPHTHOFLAVONE, Method: STANDARD PLATE) “inactive; negative”; (Test System: E. COLI, Strain/Indicator: WP2, Metabolic Activation: NONE, Method: STANDARD PLATE) “inactive; negative”; (Test System: E. COLI, Strain/Indicator: WP2, Metabolic Activation: RAT, LIVER, S-9, AROCLOR 1254, Method: STANDARD PLATE) “inactive; negative”; (Test System: E. COLI, Strain/Indicator: WP2 UVRA, Metabolic Activation: NONE, Method: STANDARD PLATE) “inactive; negative”; (Test System: E. COLI, Strain/Indicator: WP2 UVRA, Metabolic Activation: RAT, LIVER, S-9, AROCLOR 1254, Method: STANDARD PLATE) “inactive; negative”.
Turning to `CN(N=O)C(=O)Nc1ccccc1`, the mutagenic call (End Point: IN VITRO CHROMOSOMAL ABERRATIONS, Test System: CHINESE HAMSTER V79-E CELLS, Metabolic Activation: NONE) is “active; positive (structural changes)”.
For the molecule `CC(=O)OCN(CCCCCl)N=O`, the mutagenic call (Test System: AMES SALMONELLA TYPHIMURIUM, Strain/Indicator: TA92, Metabolic Activation: NONE, Method: STANDARD PLATE) is “active; positive” and the mutagenic call under setting [6] was “active; positive”.
Consider `O=C(Nc1ccccc1Cl)c1csc([N+](=O)[O-])c1`, for which the mutagenic call runs as follows: under setting [7], “active; positive”; (Test System: AMES SALMONELLA TYPHIMURIUM, Strain/Indicator: TA100, Metabolic Activation: NONE, Method: STANDARD PLATE) “active; positive”.
Take `CCOC(=O)C(SP(=S)(OC)OC)c1ccccc1` (stereo unspecified): the mutagenic call was “inactive; negative” under setting [7]; “inactive; negative” (Test System: AMES SALMONELLA TYPHIMURIUM, Strain/Indicator: TA98, Metabolic Activation: S-9, NADPH GENERATING SYSTEM, Method: STANDARD PLATE); “inactive; negative” (Test System: AMES SALMONELLA TYPHIMURIUM, Strain/Indicator: TA102, Metabolic Activation: NONE, Method: STANDARD PLATE); “inactive; negative” (Test System: AMES SALMONELLA TYPHIMURIUM, Strain/Indicator: TA102, Metabolic Activation: S-9, NADPH GENERATING SYSTEM, Method: STANDARD PLATE); “inactive; negative” under setting [6]; “inactive; negative” (Test System: AMES SALMONELLA TYPHIMURIUM, Strain/Indicator: TA1535, Metabolic Activation: S-9, NADPH GENERATING SYSTEM, Method: STANDARD PLATE). In addition, the mutagenic call by setting is: under setting [5], “inactive; negative”; (Test System: AMES SALMONELLA TYPHIMURIUM, Strain/Indicator: TA1537, Metabolic Activation: S-9, NADPH GENERATING SYSTEM, Method: STANDARD PLATE) “inactive; negative”.
